Measurements reported in PubChem BioAssay (NCI).
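All cell lines were grown in 96-well plates and treated with compound for 48 hours. The concentration for 50% growth inhibition is given as GI50. TGI denotes the concentration required for complete inhibition of growth.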

What was measured:
Experiment in all cases: NCI tumour cell line growth inhibition, 48 h
RXF 393 renal = system: RXF 393 renal
CCRF-CEM leukemia = system: CCRF-CEM leukemia
UACC-257 melanoma = system: UACC-257 melanoma
EKVX NSCLC = system: EKVX NSCLC
IGROV1 ovarian = system: IGROV1 ovarian
P388/ADR leukemia = system: P388/ADR leukemia
K-562 leukemia = system: K-562 leukemia
NCI-H226 lung = system: NCI-H226 lung
SNB-19 CNS = system: SNB-19 CNS
MCF7 breast = system: MCF7 breast
SK-MEL-2 melanoma = system: SK-MEL-2 melanoma
HT29 colon = system: HT29 colon
SW-620 colon = system: SW-620 colon
UO-31 renal = system: UO-31 renal
SF-539 CNS = system: SF-539 CNS
SNB-78 CNS = system: SNB-78 CNS
NCI-H460 lung = system: NCI-H460 lung
HL-60(TB) leukemia = system: HL-60(TB) leukemia
COLO 205 colon = system: COLO 205 colon
U251 CNS = system: U251 CNS
LOX IMVI melanoma = system: LOX IMVI melanoma
A549 NSCLC = system: A549 NSCLC
HCT-15 colon = system: HCT-15 colon
KM20L2 colon = system: KM20L2 colon
HOP-18 NSCLC = system: HOP-18 NSCLC
CAKI-1 renal = system: CAKI-1 renal
SNB-75 CNS = system: SNB-75 CNS
KM12 colon = system: KM12 colon
MOLT-4 leukemia = system: MOLT-4 leukemia
OVCAR-8 ovarian = system: OVCAR-8 ovarian
UACC-62 melanoma = system: UACC-62 melanoma
MALME-3M melanoma = system: MALME-3M melanoma
HCC-2998 colon = system: HCC-2998 colon
OVCAR-3 ovarian = system: OVCAR-3 ovarian
NCI-H23 lung = system: NCI-H23 lung
OVCAR-5 ovarian = system: OVCAR-5 ovarian
SF-268 CNS = system: SF-268 CNS
SK-OV-3 ovarian = system: SK-OV-3 ovarian
NCI/ADR-RES ovarian = system: NCI/ADR-RES ovarian
DMS 273 small cell lung = system: DMS 273 small cell lung
HCT-116 colon = system: HCT-116 colon
SF-295 CNS = system: SF-295 CNS
HOP-62 NSCLC = system: HOP-62 NSCLC
SN12C renal = system: SN12C renal
RPMI-8226 leukemia = system: RPMI-8226 leukemia
SK-MEL-5 melanoma = system: SK-MEL-5 melanoma
SK-MEL-28 melanoma = system: SK-MEL-28 melanoma
OVCAR-4 ovarian = system: OVCAR-4 ovarian
SN12K1 renal = system: SN12K1 renal
A498 renal = system: A498 renal
M19-MEL melanoma = system: M19-MEL melanoma
HOP-92 NSCLC = system: HOP-92 NSCLC
DMS 114 small cell lung = system: DMS 114 small cell lung
P388 leukemia = system: P388 leukemia
DLD-1 colon = system: DLD-1 colon
XF 498 CNS = system: XF 498 CNS
NCI-H522 lung = system: NCI-H522 lung
PC-3 prostate = system: PC-3 prostate
MDA-MB-435 = system: MDA-MB-435
BT-549 breast = system: BT-549 breast
T-47D breast = system: T-47D breast
786-0 renal = system: 786-0 renal
MDA-N = system: MDA-N
HS 578T breast = system: HS 578T breast
TK-10 renal = system: TK-10 renal
DU-145 prostate = system: DU-145 prostate
M14 melanoma = system: M14 melanoma
ACHN renal = system: ACHN renal
MDA-MB-231 breast = system: MDA-MB-231 breast

CCN(CC)c1c(C)c(C(=O)OC)nn1-c1ccccc1
TGI (RXF 393 renal): > 100 µM | TGI (CCRF-CEM leukemia): > 100 µM | TGI (UACC-257 melanoma): > 100 µM | TGI (EKVX NSCLC): > 100 µM | TGI (IGROV1 ovarian): > 100 µM | TGI (P388/ADR leukemia): > 100 µM | TGI (K-562 leukemia): > 100 µM | TGI (NCI-H226 lung): > 100 µM | TGI (SNB-19 CNS): > 100 µM | TGI (MCF7 breast): > 100 µM | TGI (SK-MEL-2 melanoma): > 100 µM | TGI (HT29 colon): > 100 µM | TGI (SW-620 colon): > 100 µM | TGI (UO-31 renal): > 100 µM | TGI (SF-539 CNS): > 100 µM | TGI (SNB-78 CNS): > 100 µM | TGI (NCI-H460 lung): > 100 µM | TGI (HL-60(TB) leukemia): > 100 µM | TGI (COLO 205 colon): > 100 µM | TGI (U251 CNS): > 100 µM | TGI (LOX IMVI melanoma): > 100 µM | TGI (A549 NSCLC): > 100 µM | TGI (HCT-15 colon): > 100 µM | TGI (KM20L2 colon): > 100 µM | TGI (HOP-18 NSCLC): > 100 µM | TGI (CAKI-1 renal): > 86.3 µM | TGI (SNB-75 CNS): > 100 µM | TGI (KM12 colon): > 100 µM | TGI (MOLT-4 leukemia): > 100 µM | TGI (OVCAR-8 ovarian): > 100 µM | TGI (UACC-62 melanoma): > 100 µM | TGI (MALME-3M melanoma): > 100 µM | TGI (HCC-2998 colon): > 100 µM | TGI (OVCAR-3 ovarian): > 100 µM | TGI (NCI-H23 lung): > 100 µM | TGI (OVCAR-5 ovarian): > 100 µM | TGI (SF-268 CNS): > 100 µM | TGI (SK-OV-3 ovarian): > 100 µM | TGI (NCI/ADR-RES ovarian): > 100 µM | TGI (DMS 273 small cell lung): > 100 µM | TGI (HCT-116 colon): > 100 µM | TGI (SF-295 CNS): > 100 µM | TGI (HOP-62 NSCLC): > 100 µM | TGI (SN12C renal): > 100 µM | TGI (RPMI-8226 leukemia): > 100 µM | TGI (SK-MEL-5 melanoma): > 100 µM | TGI (SK-MEL-28 melanoma): > 100 µM | TGI (OVCAR-4 ovarian): > 100 µM | TGI (SN12K1 renal): > 100 µM | TGI (A498 renal): > 100 µM | TGI (M19-MEL melanoma): > 100 µM | TGI (HOP-92 NSCLC): > 100 µM | TGI (DMS 114 small cell lung): > 100 µM | TGI (P388 leukemia): > 100 µM | TGI (DLD-1 colon): > 100 µM | TGI (XF 498 CNS): > 100 µM | TGI (NCI-H522 lung): > 100 µM

COC(=O)C12OCC34C(CC5C(C)=C(O)C(=O)CC5(C)C3C(O)C1O)OC(=O)C(OC(=O)C=C(C)C)C24 (centres undefined)
GI50 (RXF 393 renal): 0.231 µM | TGI (PC-3 prostate): 0.631 µM | GI50 (UACC-257 melanoma): 0.231 µM | TGI (EKVX NSCLC): > 500 µM | TGI (IGROV1 ovarian): > 500 µM | TGI (MDA-MB-435): 0.905 µM | TGI (BT-549 breast): 0.726 µM | TGI (T-47D breast): 0.0789 µM | TGI (P388/ADR leukemia): > 500 µM | GI50 (K-562 leukemia): < 0.215 µM | GI50 (NCI-H226 lung): < 0.215 µM | GI50 (SNB-19 CNS): < 0.215 µM | TGI (SNB-19 CNS): > 500 µM | TGI (786-0 renal): 0.689 µM | TGI (MCF7 breast): > 500 µM | GI50 (SK-MEL-2 melanoma): < 0.215 µM | GI50 (HT29 colon): < 0.215 µM | TGI (HT29 colon): > 500 µM | GI50 (SW-620 colon): 0.231 µM | TGI (SW-620 colon): > 500 µM | TGI (MDA-N): 0.481 µM | GI50 (UO-31 renal): 0.576 µM | TGI (SF-539 CNS): > 500 µM | TGI (HS 578T breast): 2.03 µM | TGI (SNB-78 CNS): > 500 µM | TGI (NCI-H460 lung): > 316 µM | TGI (HL-60(TB) leukemia): > 500 µM | TGI (COLO 205 colon): > 500 µM | TGI (U251 CNS): > 500 µM | TGI (LOX IMVI melanoma): > 500 µM | TGI (A549 NSCLC): > 500 µM | GI50 (HCT-15 colon): 0.456 µM | TGI (TK-10 renal): 0.582 µM | TGI (DU-145 prostate): > 8.12 µM | TGI (M14 melanoma): 0.359 µM | TGI (KM20L2 colon): > 500 µM | TGI (HOP-18 NSCLC): > 500 µM | GI50 (CAKI-1 renal): 0.899 µM | GI50 (KM12 colon): < 0.215 µM | TGI (KM12 colon): > 500 µM | TGI (MOLT-4 leukemia): > 500 µM | GI50 (OVCAR-8 ovarian): 0.222 µM | TGI (ACHN renal): 0.463 µM | GI50 (UACC-62 melanoma): < 0.215 µM | GI50 (MALME-3M melanoma): < 0.215 µM | GI50 (HCC-2998 colon): < 0.156 µM | TGI (OVCAR-3 ovarian): > 500 µM | GI50 (NCI-H23 lung): < 0.215 µM | GI50 (OVCAR-5 ovarian): 0.245 µM | GI50 (SF-268 CNS): 0.344 µM | TGI (SF-268 CNS): > 500 µM | TGI (SK-OV-3 ovarian): > 500 µM | TGI (MDA-MB-231 breast): 0.0905 µM | GI50 (NCI/ADR-RES ovarian): 4.34 µM | TGI (DMS 273 small cell lung): > 500 µM | GI50 (HCT-116 colon): 0.226 µM | GI50 (SF-295 CNS): 0.232 µM | TGI (HOP-62 NSCLC): > 500 µM | GI50 (SN12C renal): 0.32 µM | TGI (RPMI-8226 leukemia): > 500 µM | GI50 (SK-MEL-5 melanoma): < 0.215 µM | GI50 (SK-MEL-28 melanoma): < 0.215 µM | GI50 (OVCAR-4 ovarian): > 500 µM | TGI (SN12K1 renal): > 500 µM | TGI (A498 renal): > 500 µM | TGI (M19-MEL melanoma): > 500 µM | TGI (HOP-92 NSCLC): 494 µM | TGI (DMS 114 small cell lung): > 460 µM | TGI (P388 leukemia): > 500 µM | TGI (DLD-1 colon): > 79.3 µM | TGI (XF 498 CNS): > 476 µM | GI50 (NCI-H522 lung): < 0.215 µM
